This note sets out measurements from ChEMBL document CHEMBL4613296 (ACS Med Chem Lett, 2020).

What is called IC50 is the concentration that inhibits the measured activity by half.

Assay [1] concerns the target Rhodesain (Trypanosoma brucei rhodesiense) (UniProt Q95PM0). Description: Inhibition of Trypanosoma brucei rhodesain assessed as combinational index measured at fraction affected value of 0.20 in presence of curcumin using Cbz-Phe-Arg-AMC as substrate incubated for 30 mins by fluorescence based assay.
The target is the same in assay [2]. Nature of the assay: Inhibition of Trypanosoma brucei rhodesain assessed as combinational index measured at fraction affected value of 0.70 in presence of curcumin using Cbz-Phe-Arg-AMC as substrate incubated for 30 mins by fluorescence based assay.
For assay [3] the target is unchanged. Nature of the assay: Inhibition of Trypanosoma brucei rhodesain assessed as combinational index measured at fraction affected value of 0.80 in presence of curcumin using Cbz-Phe-Arg-AMC as substrate incubated for 30 mins by fluorescence based assay.
Assay [4] has the same target. Nature of the assay: Inhibition of Trypanosoma brucei rhodesain assessed as combinational index measured at fraction affected value of 0.60 in presence of curcumin using Cbz-Phe-Arg-AMC as substrate incubated for 30 mins by fluorescence based assay.
Assay [5] concerns Trypanosoma brucei brucei. Nature of the assay: Antitrypanosomal activity against blood stage form of Trypanosoma brucei brucei 449 incubated for 24 hrs by ATPlite assay. The assay is classed as functional, organism-based. Particulars: Trypanosoma brucei, 449, 24 h.
Assay [6] concerns the target Rhodesain (Trypanosoma brucei rhodesiense) (UniProt Q95PM0). Nature of the assay: Inhibition of Trypanosoma brucei rhodesain using increasing concentration of Cbz-Phe-Arg-AMC as substrate incubated for 30 mins by fluorometric assay.
Assay [7] has the same target. Description: Inhibition of Trypanosoma brucei rhodesain assessed as combinational index measured at fraction affected value of 0.99 in presence of curcumin using Cbz-Phe-Arg-AMC as substrate incubated for 30 mins by fluorescence based assay.
Assay [8] deals with Rhodesain (Trypanosoma brucei rhodesiense, UniProt Q95PM0). Description: Inhibition of Trypanosoma brucei rhodesain in presence of curcumin using Cbz-Phe-Arg-AMC as substrate incubated for 30 mins by fluorometric assay.
Rhodesain, sequence (Q95PM0 whole entry): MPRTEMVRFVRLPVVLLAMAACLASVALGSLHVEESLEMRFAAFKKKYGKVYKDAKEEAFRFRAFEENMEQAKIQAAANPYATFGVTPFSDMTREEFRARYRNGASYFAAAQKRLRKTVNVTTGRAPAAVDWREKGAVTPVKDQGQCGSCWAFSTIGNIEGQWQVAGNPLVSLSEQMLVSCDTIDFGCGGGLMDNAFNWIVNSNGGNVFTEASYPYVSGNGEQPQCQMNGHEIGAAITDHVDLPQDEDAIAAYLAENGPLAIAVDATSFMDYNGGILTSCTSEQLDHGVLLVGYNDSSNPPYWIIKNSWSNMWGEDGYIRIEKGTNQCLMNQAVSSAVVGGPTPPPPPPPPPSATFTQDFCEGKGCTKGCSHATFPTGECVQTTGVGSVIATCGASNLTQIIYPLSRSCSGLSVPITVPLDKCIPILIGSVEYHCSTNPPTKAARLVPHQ
Assay [9] concerns the target Rhodesain (Trypanosoma brucei rhodesiense) (UniProt Q95PM0). Description: Inhibition of Trypanosoma brucei rhodesain assessed as combinational index measured at fraction affected value of 0.90 in presence of curcumin using Cbz-Phe-Arg-AMC as substrate incubated for 30 mins by fluorescence based assay.
In assay [10] the test system is Trypanosoma brucei brucei. Nature of the assay: Antitrypanosomal activity against blood stage form of Trypanosoma brucei brucei 449 in presence of curcumin incubated for 24 hrs by ATPlite assay. The format is functional, organism-based. Particulars: Trypanosoma brucei, 449, 24 h.
Assay [11] concerns the target Rhodesain (Trypanosoma brucei rhodesiense) (UniProt Q95PM0). Description: Inhibition of Trypanosoma brucei rhodesain assessed as combinational index measured at fraction affected value of 0.30 in presence of curcumin using Cbz-Phe-Arg-AMC as substrate incubated for 30 mins by fluorescence based assay.
Assay [12] has the same target. Nature of the assay: Inhibition of Trypanosoma brucei rhodesain assessed as combinational index measured at fraction affected value of 0.40 in presence of curcumin using Cbz-Phe-Arg-AMC as substrate incubated for 30 mins by fluorescence based assay.
For assay [13] the target is unchanged. Nature of the assay: Inhibition of Trypanosoma brucei rhodesain assessed as combinational index measured at fraction affected value of 0.50 in presence of curcumin using Cbz-Phe-Arg-AMC as substrate incubated for 30 mins by fluorescence based assay.
For assay [14] the target is unchanged. Nature of the assay: Inhibition of Trypanosoma brucei rhodesain assessed as combinational index measured at fraction affected value of 0.10 in presence of curcumin using Cbz-Phe-Arg-AMC as substrate incubated for 30 mins by fluorescence based assay.

Activity calls are given as the source filed them. The rule behind the calls is not given here.

Rhodesain (Trypanosoma brucei rhodesiense), sequence (Q95PM0 1-450): as the sequence (Q95PM0 whole entry) above

With `CC(=O)/C=C/[C@H](CCc1ccccc1)NC(=O)[C@H](Cc1ccccc1)NC(=O)OCc1ccccc1`, the CI amounted to 1.16 in [1]; 0.83 in assay [2]; 0.768 in [3]; 0.886 in [4]; 0.453 in assay [7]; 0.686 in [9]. In addition, the CI in assay [11] turned out to be 1.07; in assay [12], 1; in [13] it was 0.941; in assay [14], 1.32. The half-maximal inhibitory concentration (IC50) is 2.33 µM in assay [5], 3.05 µM in assay [8] and 4.64 µM in [10]. Moreover, in assay [6], the inhibition entry was “Active”.

The compound `COc1cc(/C=C/C(=O)CC(=O)/C=C/c2ccc(O)c(OC)c2)ccc1O` [CURCUMIN] registered a concentration for half-maximal inhibition (IC50) in [5] of 3.12 µM. Further, the inhibition result in assay [6] is “inactive”.
